Results from patent publication US10421774B2 (priority 2016, dated 2019).

Experiments:
Assay in all cases: microbe, parasite or virus in culture
Type in all cases: cell-based, HIV-1
gag V370A/ΔT371 virus = conditions: Human immunodeficiency virus 1, MT2, read-out: V370A/ΔT371 EC50
Procedure, shortened: (§1)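 Virus yield quantified by Renilla luciferase after 4–5 day culture at 37°C of MT-2 cells (10,000/well) with 3-fold serially diluted compound at 1% final DMSO. Reporter viruses were NL4-3 P373S derivatives bearing Gag A364V or V370A/ΔT371, inputs matched on luciferase endpoint.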

[1] = test system: A364V site directed mutant virus; conditions: Human immunodeficiency virus 1, MT2, read-out: A364V EC50
Procedure, shortened: as §1

[2] = test system: T332S/V362I/Pr R41G virus; conditions: Human immunodeficiency virus 1, MT2, read-out: T332S/V362I/pr41G EC50
Procedure, shortened: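 Multiple-cycle susceptibility: MT-2 cells, 10,000 per well, exposed to 3-fold compound dilutions at 1% DMSO after infection with luciferase-normalized inoculum. Virus: NL4-3-derived Renilla reporter (Gag P373S) with Gag T332S/V362I and protease R41G. Readout Renilla luciferase after 4–5 days, 37 °C.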

[3] = test system: NLRepRlucP373S recombinant wild type (WT) virus; conditions: Human immunodeficiency virus 1, MT2, read-out: WT EC50
Procedure, shortened: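 Multiple-cycle assay: luciferase-normalized NL4-3-derived NLRepRlucP373S (Renilla luciferase in place of nef) infects MT-2 cells, 10,000 cells/well, with 3-fold compound dilutions at 1% DMSO, 4-5 days, 37 °C. EC50 and EC90 fitted by median effect equation against Renilla luminescence, with residual signal under 3 μM NFV as background.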

C=C(C)[C@@H]1CC[C@]2(NCCN3CCS(=O)(=O)CC3)CC[C@]3(C)[C@H](CC[C@@H]4[C@@]5(C)CC=C(C6=CCC(CCOc7ccccn7)(C(=O)O)CC6)C(C)(C)[C@@H]5CC[C@]43C)[C@@H]12 (stereo partly drawn) [Example A20, 4-((1R,3aS,5aR,5bR,7aR,11aS,11bR,13aR,13bR)-3a-((2-(1,1-dioxidothiomorpholino)ethyl)amino)-5a,5b,8,8,11a-pentamethyl-1-(prop-1-en-2-yl)-2,3,3a,4,5,5a,5b,6,7,7a,8,11,11a,11b,12,13,13a,13b-octadecahydro-1H-cyclopenta[a]chrysen-9-yl)-1-(2-(pyridin-2-yloxy)ethyl)cyclohex-3-ene-1-carboxylic acid]
EC50 (gag V370A/ΔT371 virus): < 0.05 µM
EC50 [1]: < 0.05 µM
EC50 [2]: < 0.05 µM
EC50 [3]: < 0.05 µM

C=C(C)[C@@H]1CC[C@]2(NCCN3CCS(=O)(=O)CC3)CC[C@]3(C)[C@H](CC[C@@H]4[C@@]5(C)CC=C(C6=CCC(CCOc7cc(C)sn7)(C(=O)O)CC6)C(C)(C)[C@@H]5CC[C@]43C)[C@@H]12 (stereo partly drawn) [Example A21, 4-((1R,3aS,5aR,5bR,7aR,11aS,11bR,13aR,13bR)-3a-((2-(1,1-dioxidothiomorpholino)ethyl)amino)-5a,5b,8,8,11a-pentamethyl-1-(prop-1-en-2-yl)-2,3,3a,4,5,5a,5b,6,7,7a,8,11,11a,11b,12,13,13a,13b-octadecahydro-1H-cyclopenta[a]chrysen-9-yl)-1-(2-((5-methylisothiazol-3-yl)oxy)ethyl)cyclohex-3-ene-1-carboxylic acid]
EC50 (gag V370A/ΔT371 virus): 0.018 µM
EC50 [1]: 0.017 µM
EC50 [2]: 0.018 µM
EC50 [3]: 0.003 µM

C=C(C)[C@@H]1CC[C@]2(NCCN3CCS(=O)(=O)CC3)CC[C@]3(C)[C@H](CC[C@@H]4[C@@]5(C)CC=C(C6=CCC(CCOc7ncccc7C#N)(C(=O)O)CC6)C(C)(C)[C@@H]5CC[C@]43C)[C@@H]12 (stereo partly drawn) [Example A22, 1-(2-((3-cyanopyridin-2-yl)oxy)ethyl)-4-((1R,3aS,5aR,5bR,7aR,11aS,11bR,13aR,13bR)-3a-((2-(1,1-dioxidothiomorpholino)ethyl)amino)-5a,5b,8,8,11a-pentamethyl-1-(prop-1-en-2-yl)-2,3,3a,4,5,5a,5b,6,7,7a,8,11,11a,11b,12,13,13a,13b-octadecahydro-1H-cyclopenta[a]chrysen-9-yl)cyclohex-3-ene-1-carboxylic acid]
EC50 (gag V370A/ΔT371 virus): 0.013 µM
EC50 [1]: 0.027 µM
EC50 [2]: 0.013 µM
EC50 [3]: 0.004 µM

C=C(C)[C@@H]1CC[C@]2(NCCN3CCS(=O)(=O)CC3)CC[C@]3(C)[C@H](CC[C@@H]4[C@@]5(C)CC=C(C6=CCC(CCOc7cc(C(=O)O)ccn7)(C(=O)O)CC6)C(C)(C)[C@@H]5CC[C@]43C)[C@@H]12 (stereo partly drawn) [Example A23, 2-(2-(1-carboxy-4-((1R,3aS,5aR,5bR,7aR,11aS,11bR,13aR,13bR)-3a-((2-(1,1-dioxidothiomorpholino)ethyl)amino)-5a,5b,8,8,11a-pentamethyl-1-(prop-1-en-2-yl)-2,3,3a,4,5,5a,5b,6,7,7a,8,11,11a,11b,12,13,13a,13b-octadecahydro-1H-cyclopenta[a]chrysen-9-yl)cyclohex-3-en-1-yl)ethoxy)isonicotinic acid]
EC50 (gag V370A/ΔT371 virus): > 0.05 µM
EC50 [1]: 0.333 µM
EC50 [2]: 0.193 µM
EC50 [3]: 0.007 µM

C=C(C)[C@@H]1CC[C@]2(NCCN3CCS(=O)(=O)CC3)CC[C@]3(C)[C@H](CC[C@@H]4[C@@]5(C)CC=C(C6=CCC(CCOc7cc(C#N)ccn7)(C(=O)O)CC6)C(C)(C)[C@@H]5CC[C@]43C)[C@@H]12 (stereo partly drawn) [Example A24, 1-(2-((4-cyanopyridin-2-yl)oxy)ethyl)-4-((1R,3aS,5aR,5bR,7aR,11aS,11bR,13aR,13bR)-3a-((2-(1,1-dioxidothiomorpholino)ethyl)amino)-5a,5b,8,8,11a-pentamethyl-1-(prop-1-en-2-yl)-2,3,3a,4,5,5a,5b,6,7,7a,8,11,11a,11b,12,13,13a,13b-octadecahydro-1H-cyclopenta[a]chrysen-9-yl)cyclohex-3-ene-1-carboxylic acid]
EC50 (gag V370A/ΔT371 virus): 3 µM
EC50 [1]: 0.007 µM
EC50 [2]: 3 µM
EC50 [3]: 0.001 µM

C=C(C)[C@@H]1CC[C@]2(NCCN3CCS(=O)(=O)CC3)CC[C@]3(C)[C@H](CC[C@@H]4[C@@]5(C)CC=C(C6=CCC(CCOc7ncccn7)(C(=O)O)CC6)C(C)(C)[C@@H]5CC[C@]43C)[C@@H]12 (stereo partly drawn) [Example A25, 4-((1R,3aS,5aR,5bR,7aR,11aS,11bR,13aR,13bR)-3a-((2-(1,1-dioxidothiomorpholino)ethyl)amino)-5a,5b,8,8,11a-pentamethyl-1-(prop-1-en-2-yl)-2,3,3a,4,5,5a,5b,6,7,7a,8,11,11a,11b,12,13,13a,13b-octadecahydro-1H-cyclopenta[a]chrysen-9-yl)-1-(2-(pyrimidin-2-yloxy)ethyl)cyclohex-3-ene-1-carboxylic acid]
EC50 (gag V370A/ΔT371 virus): < 0.05 µM
EC50 [1]: < 0.05 µM
EC50 [2]: < 0.05 µM
EC50 [3]: < 0.05 µM

C=C(C)[C@@H]1CC[C@]2(NCCN3CCS(=O)(=O)CC3)CC[C@]3(C)[C@H](CC[C@@H]4[C@@]5(C)CC=C(C6=CCC(CCOc7nccc(C)n7)(C(=O)O)CC6)C(C)(C)[C@@H]5CC[C@]43C)[C@@H]12 (stereo partly drawn) [Example A26, 4-((1R,3aS,5aR,5bR,7aR,11aS,11bR,13aR,13bR)-3a-((2-(1,1-dioxidothiomorpholino)ethyl)amino)-5a,5b,8,8,11a-pentamethyl-1-(prop-1-en-2-yl)-2,3,3a,4,5,5a,5b,6,7,7a,8,11,11a,11b,12,13,13a,13b-octadecahydro-1H-cyclopenta[a]chrysen-9-yl)-1-(2-((4-methylpyrimidin-2-yl)oxy)ethyl)cyclohex-3-ene-1-carboxylic acid]
EC50 (gag V370A/ΔT371 virus): > 0.05 µM
EC50 [1]: > 0.05 µM
EC50 [2]: > 0.05 µM
EC50 [3]: 0.005 µM

C=C(C)[C@@H]1CC[C@]2(NCCN3CCS(=O)(=O)CC3)CC[C@]3(C)[C@H](CC[C@@H]4[C@@]5(C)CC=C(C6=CCC(CCOc7nccc(OC)n7)(C(=O)O)CC6)C(C)(C)[C@@H]5CC[C@]43C)[C@@H]12 (stereo partly drawn) [Example A27, 4-((1R,3aS,5aR,5bR,7aR,11aS,11bR,13aR,13bR)-3a-((2-(1,1-dioxidothiomorpholino)ethyl)amino)-5a,5b,8,8,11a-pentamethyl-1-(prop-1-en-2-yl)-2,3,3a,4,5,5a,5b,6,7,7a,8,11,11a,11b,12,13,13a,13b-octadecahydro-1H-cyclopenta[a]chrysen-9-yl)-1-(2-((4-methoxypyrimidin-2-yl)oxy)ethyl)cyclohex-3-ene-1-carboxylic acid]
EC50 (gag V370A/ΔT371 virus): > 0.05 µM
EC50 [1]: > 0.05 µM
EC50 [2]: 3 µM
EC50 [3]: 0.022 µM

C=C(C)[C@@H]1CC[C@]2(NCCN3CCS(=O)(=O)CC3)CC[C@]3(C)[C@H](CC[C@@H]4[C@@]5(C)CC=C(C6=CCC(CCOc7ncccc7C)(C(=O)O)CC6)C(C)(C)[C@@H]5CC[C@]43C)[C@@H]12 (stereo partly drawn) [Example A28, 4-((1R,3aS,5aR,5bR,7aR,11aS,11bR,13aR,13bR)-3a-((2-(1,1-dioxidothiomorpholino)ethyl)amino)-5a,5b,8,8,11a-pentamethyl-1-(prop-1-en-2-yl)-2,3,3a,4,5,5a,5b,6,7,7a,8,11,11a,11b,12,13,13a,13b-octadecahydro-1H-cyclopenta[a]chrysen-9-yl)-1-(2-((3-methylpyridin-2-yl)oxy)ethyl)cyclohex-3-ene-1-carboxylic acid]
EC50 (gag V370A/ΔT371 virus): 0.068 µM
EC50 [1]: > 0.05 µM
EC50 [2]: 0.068 µM
EC50 [3]: < 0.05 µM

C=C(C)[C@@H]1CC[C@]2(NCCN3CCS(=O)(=O)CC3)CC[C@]3(C)[C@H](CC[C@@H]4[C@@]5(C)CC=C(C6=CCC(CCOc7ncccc7Cl)(C(=O)O)CC6)C(C)(C)[C@@H]5CC[C@]43C)[C@@H]12 (stereo partly drawn) [Example A29, 1-(2-((3-chloropyridin-2-yl)oxy)ethyl)-4-((1R,3aS,5aR,5bR,7aR,11aS,11bR,13aR,13bR)-3a-((2-(1,1-dioxidothiomorpholino)ethyl)amino)-5a,5b,8,8,11a-pentamethyl-1-(prop-1-en-2-yl)-2,3,3a,4,5,5a,5b,6,7,7a,8,11,11a,11b,12,13,13a,13b-octadecahydro-1H-cyclopenta[a]chrysen-9-yl)cyclohex-3-ene-1-carboxylic acid]
EC50 (gag V370A/ΔT371 virus): 0.003 µM
EC50 [1]: 0.004 µM
EC50 [2]: 0.003 µM
EC50 [3]: 0.005 µM

C=C(C)[C@@H]1CC[C@]2(NCCN3CCS(=O)(=O)CC3)CC[C@]3(C)[C@H](CC[C@@H]4[C@@]5(C)CC=C(C6=CCC(CCOc7ncccc7C(F)(F)F)(C(=O)O)CC6)C(C)(C)[C@@H]5CC[C@]43C)[C@@H]12 (stereo partly drawn) [Example A30, 4-((1R,3aS,5aR,5bR,7aR,11aS,11bR,13aR,13bR)-3a-((2-(1,1-dioxidothiomorpholino)ethyl)amino)-5a,5b,8,8,11a-pentamethyl-1-(prop-1-en-2-yl)-2,3,3a,4,5,5a,5b,6,7,7a,8,11,11a,11b,12,13,13a,13b-octadecahydro-1H-cyclopenta[a]chrysen-9-yl)-1-(2-((3-(trifluoromethyl)pyridin-2-yl)oxy)ethyl)cyclohex-3-ene-1-carboxylic acid]
EC50 (gag V370A/ΔT371 virus): 0.223 µM
EC50 [1]: 3 µM
EC50 [2]: 0.223 µM
EC50 [3]: 0.013 µM
